Experimental data published in EP1369114A1, “Use of tryptophan metabolites as pharmaceutical agents” (Terness, Peter, Priv. Doz. Dr., priority 2002, dated 2003).

Assays:
Type in all cases: cell-based, human
[1] = test system: kynurenine-suppressed T cells; experiment: Polyclonal restimulation with Concanavalin A of T cells suppressed during anti-CD3 stimulation; conditions: anti-CD3 plus kynurenine 2 days, washed, Con-A in the absence of kynurenine
Protocol: • (a) Allogeneic T-cell response. DCs were infected with recombinant IDO-adeno-GFP (DC-IDO-GFP), IDO-adeno (DC-IDO) or with control adenoviruses (DC-adeno) at a MOI (multiplicity of infection) up to 500 for 2 days. Lymphocytes (PBMCs) were separated from peripheral blood of healthy donors by density gradient centrifugation and typed for HLA antigens. Only HLA-DR-different responder lymphocytes were used for DC-induced stimulation. […] After 5 days, ^3[H]-thymidin was added for 12hrs and the number of counts (counts per minute = cpm) determined in a (3-counter (Inotech Biosystems, Lansing, MI). In order to verify whether IDO expression or adenovirus infection harm the DCs, 10^5 cells were infected with IDO-adeno-GFP, IDO-adenovirus, or adenovirus only at a stepwise decreasing MOI (500, 250, 125, ........ 3.9) and cell viability was measured in FACS following double staining with 7-AAD and anti-CD83 antibody-PE. The percentage of dead cells never exceeded 30% for any MOI following IDO-adeno-GFP- or IDO-adeno-infection and 40% following adenovirus(control)-infection. […] After 2 days, cell proliferation was assessed by measuring ^3[H]-thymidin incorporation (cpm) as described. • (c) Tryptophan metabolite titration curves. […] After 2 days, ^3[H] thymidin was added and the number of counts recorded. […] After another 2 days, ^3[H] thymidin was added and cpm determined. […]

[2] = test system: T cells activated with allogeneic dendritic cells; experiment: Allogeneic restimulation, with donor-specific or third-party DCs, of T cells activated with allogeneic DCs; parameters: restimulation with donor-specific DCs: dose or concentration left out as unconfirmed
Source text: • (a) Allogeneic T-cell response. DCs were infected with recombinant IDO-adeno-GFP (DC-IDO-GFP), IDO-adeno (DC-IDO) or with control adenoviruses (DC-adeno) at a MOI (multiplicity of infection) up to 500 for 2 days. Lymphocytes (PBMCs) were separated from peripheral blood of healthy donors by density gradient centrifugation and typed for HLA antigens. Only HLA-DR-different responder lymphocytes were used for DC-induced stimulation. Native DCs only, lymphocytes only, native DCs + allogeneic lymphocytes, DC-IDO-GFP + allogeneic lymphoytes, DC-IDO + allogeneic lymphoytes, DC-adeno + allogeneic lymphocytes (each time 10^5 DC + 10^5 lymphocytes in 0.2ml medium) were cultured in RPMI 1640 medium (Gibco BRL Life Technologies GmbH, Eggenstein, Germany) with 10% fetal calf serum (FCS) (final tryptophan concentration 5.25 mg/l = 25.69 uM) and Penicillin G/Streptomycin. After 5 days, ^3[H]-thymidin was added for 12hrs and the number of counts (counts per minute = cpm) determined in a (3-counter (Inotech Biosystems, Lansing, MI). In order to verify whether IDO expression or adenovirus infection harm the DCs, 10^5 cells were infected with IDO-adeno-GFP, IDO-adenovirus, or adenovirus only at a stepwise decreasing MOI (500, 250, 125, ........ 3.9) and cell viability was measured in FACS following double staining with 7-AAD and anti-CD83 antibody-PE. The percentage of dead cells never exceeded 30% for any MOI following IDO-adeno-GFP- or IDO-adeno-infection and 40% following adenovirus(control)-infection. Moreover, these values were not higher than those of native DCs cultured for the same period of time. […] After 2 days, cell proliferation was assessed by measuring ^3[H]-thymidin incorporation (cpm) as described. • (c) Tryptophan metabolite titration curves. […] After 2 days, ^3[H] thymidin was added and the number of counts recorded. […] After another 2 days, ^3[H] thymidin was added and cpm determined. […] 3[H] thymidin was added to all cultures and the number of counts (cpm) determined. • (e) Tryptophan titration curve. […]

T cells = experiment: Detection of cell death: 7-AAD staining of anti-CD3 stimulated lymphocytes, FACScan; conditions: anti-CD3, 3 days; 1501 µM kynurenine, 349µM 3-hydroxykynurenine, 510µM 3-hydroxyanthranilic acid, mixture 64 µM of each compound
Protocol: Lymphocytes were stimulated in culture with anti-CD3 monoclonal antibody (s. above) in the presence or absence (control) of kynurenine (1501µM), 3-hydroxyanthranilic acid (510µM), 3-hydroxykynurenine (348µM), or metabolite mixture (64µM kynurenine + 64µM 3-hydroxykynurenine + 64µM anthranilic acid + 64µM 3-hydroxyanthranilic acid + […] quinolinic acid). After 3 days the cells were washed and resuspended in PBS (10^6/ml). Thereafter, the cells (100µ1 suspension) were labeled with anti-CD3-FITC antibody (3 µl), stained with 7-AAD (5µl) for 15 min, and the percentage of 7-AAD-positive (dead) T cells was determined in a FACScan. In an other experiment T cells, B cells, NK-cells, or DCs were separated from PBMCs by magnetic beads or generated as described, and cultured (5x10^5 cells/ml) with a mixture of kynurenine metabolites (kynurenine + 3-hydroxykynurenine + anthranilic acid + 3-hydroxyanthranilic acid + quinolinic acid)(8, 16, or 32µM respectively for each compound). In one setting T cells were activated with anti-CD3 antibody. Cell death was measured daily for 5 days by 7-AAD staining and expressed in percentage of dead cells.

Q: Nc1ccccc1C(=O)CC(N)C(=O)O (centres unmarked) [kynurenine] was tested. Which “restimulation with Con-A after suppression” value [1] did it give?
A: cannot be restimulated

Q: What about the “restimulation with third-party DCs” value ([2]; extremely high doses (1500µM or 750µM) of kynurenine) of the same compound?
A: only minimal reactions

Q: What about the “restimulation with donor-specific DCs” value ([2]; kynurenine in primary stimulation, 5 days, washed) of the same compound?
A: cannot be restimulated with DCs from the same donor

Q: And the “restimulation with third-party DCs” value ([2]; medium or low doses (375µM - 47µM) of kynurenine)?
A: significant restimulation

Q: And the “dead (7-AAD-positive) T cells (in words)” value (T cells)?
A: virtually all cells died
